Values after ≈ are worked out from the molar mass of the structure shown. Active and inactive are the calls of the source. No cut-off for these calls is given here.
Key:
[1] = Trough level in BALB/c mouse at 50 mg/kg, ip after 6 hrs; assay type: ADME, organism-based; settings: in vivo
[2] = system: Mus musculus; assay: Survival of Bacillus anthracis Ames infected BALB/c mouse at 30 mg/kg, ip every 12 hrs for 14 days administered 48 hrs after infection; assay type: functional
[3] = Trough level in BALB/c mouse at 100 mg/kg, ip after 6 hrs; assay type: ADME, organism-based; settings: in vivo
[4] = Trough level in BALB/c mouse at 25 mg/kg, ip after 6 hrs; assay type: ADME, organism-based; settings: in vivo
[5] = system: Bacillus anthracis; assay: Antimicrobial activity against Bacillus anthracis Ames; assay type: functional
[6] = AUC (0-6h) in BALB/c mouse at 100 mg/kg, ip; assay type: ADME, organism-based; settings: plasma
[7] = Cmax in BALB/c mouse at 50 mg/kg, ip; assay type: ADME, organism-based; settings: in vivo
[8] = AUC (0-6h) in BALB/c mouse at 50 mg/kg, ip; assay type: ADME, organism-based; settings: plasma
[9] = Cmax in BALB/c mouse at 100 mg/kg, ip; assay type: ADME, organism-based; settings: in vivo
[10] = AUC (0-6h) in BALB/c mouse at 25 mg/kg, ip; assay type: ADME, organism-based; settings: plasma
[11] = system: Mus musculus; assay: Survival in BALB/c mouse infected with Bacillus anthracis Ames at 30 mg/kg, ip every 12 hrs for 14 days; assay type: functional, organism-based; design: dose 30 mg/kg
[12] = system: Mus musculus; assay: Survival of Bacillus anthracis Ames infected BALB/c mouse at 30 mg/kg, ip every 12 hrs for 14 days administered 36 hrs after infection; assay type: functional
[13] = Cmax in BALB/c mouse at 25 mg/kg, ip; assay type: ADME, organism-based; settings: in vivo
[14] = system: Mus musculus; assay: Survival in BALB/c mouse infected with Bacillus anthracis Ames at 40 mg/kg every 6 hrs for 14 days; assay type: functional, organism-based; design: dose 40 mg/kg

| Compound | concentration at 6 h [1] [ng/mL] | survival at 30 mg/kg [2] [%] | concentration at 6 h [3] [ng/mL] | concentration at 6 h [4] [ng/mL] | MIC [5] [µg/mL] | AUC(0-t) at 6 h [6] [ng·h/mL] | Cmax [7] [ng/mL] | AUC(0-t) at 6 h [8] [ng·h/mL] | Cmax [9] [ng/mL] | AUC(0-t) at 6 h [10] [ng·h/mL] | Activity [11] | survival at 30 mg/kg [12] [%] | Cmax [13] [ng/mL] | Activity [14] |
| --- | --- | --- | --- | --- | --- | --- | --- | --- | --- | --- | --- | --- | --- | --- |
| O=C(O)c1cn(C2CC2)c2cc(N3CCNCC3)c(F)cc2c1=O [CIPROFLOXACIN] | 1830 | 80 | 1670 | 1000 | 0.25 (≈ 0.754 µM) | 37700 | 10700 | 14100 | 20000 | 6600 | Active | 80 | 6600 | – |
| C[C@H]1c2cccc(O)c2C(=O)C2=C(O)[C@]3(O)C(=O)C(C(N)=O)=C(O)[C@@H](N(C)C)[C@@H]3[C@@H](O)[C@@H]21.O [DOXYCYCLINE] | 1670 | – | 6000 | 1330 | 0.03 | 57200 | 6700 | 23400 | 12000 | 13700 | – | – | 4000 | Active |

— ChEMBL document CHEMBL1147119 (2007)
